Test results: US5591773A, “Inhibition of cataract formation, diseases resulting from oxidative stress, and HIV replication by caffeic acid esters” (priority 1994, dated 1997)
Entries after “also recorded” stand apart in the source; their conditions may differ.

Columns and labels:
[1] = test system: transformed cells; conditions: cited from earlier work
[2] = test system: oxidative burst of human PMNs; assay: H2O2 formation by TPA-stimulated human PMNs (phenol red/HRPO); format: cell-based
Procedure: FIG. 4. CAPE-mediated inhibition of H2 O2 formation by TPA-stimulated human PMNs. Cells were incubated with CAPE (0.05-5 nmol/ml) and TPA (25 pmol/2.5×10^5 PMNs/ml) at 37° C. for 30 min, and H2 O2 was determined by the phenol red/HRPO assay, as described in the "Experimental Details" Section, infra. Note the semilog scale. The results are presented as mean values ±SE.
A) Human PMNS Blood was obtained from healthy volunteers and collected into EDTA-containing tubes. Red cells were removed by dextran sedimentation and lysis with hypotonic ammonium chloride, as described previously (5). Cells were washed in glucose-containing basic salt solution (137 mM NaCl, 5 mM KCl, 8.5 mM Na2 HPO4 -NaH2 PO4, 0.8 mM MgSO4, 5 mM glucose, pH 7.4) and suspended at a ratio of 10 ml of the initial blood volume/ml basic salt solution. Whole WBC population was used as a source of PMNs, with PMN numbers used per assay being adjusted according to the results of Wright's staining of the peripheral blood.
PMNs (2.5×10^5 /ml) were incubated with CAPE (0.05-5.0 nmol/ml) and/or TPA (25 pmol/ml) at 37° C. for 30 min in the presence of phenol red (100 μg) and HRPO (50 μg) (54). After the reaction was stopped with catalase (50 μg/ml), the pH was adjusted to 12.5 with NaOH, the mixture was centrifuged, and the absorbance of the supernatant was determined at 598 nm. […]

[3] = test system: ornithine decarboxylase (ODC); assay: TPA-induced ornithine decarboxylase (ODC) in CD-1 mice; format: in vivo; conditions: CAPE 1 μmol, TPA 5 nmol, (76)
Procedure: (§1) A) Treatment of Animals and Assays. Female SENCAR (6-8 weeks old) and CD-1 mice (about 7 weeks old) were purchased from Biological Testing, National Cancer Institute (Frederick, Md.) and from Charles River Laboratory (Stone Ridge, N.Y.), respectively. The mice were acclimated for at least 1 week before use. They were subjected to a 12-h light/12-h dark cycle, housed at 20°±2° C. in a room with 10 cycles of air exchanges/h, given food and water ad libitum, and observed for any indication of ill health. Before topical application of any test agents, their backs were shaved and only those without hair growth after 48 h were used.

[4] = test system: HIV integrase; conditions: cited from earlier work
[5] = test system: normal tissue; conditions: cited from earlier work
[6] = test system: Fischer cloned rat embryo fibroblasts; conditions: cited from earlier work
[7] = test system: NIH 10T1/2, Ltk^- and rat 6 cells transformed with T24 oncogene; conditions: cited from earlier work
[8] = test system: ornithine decarboxylase (ODC); assay: TPA-induced ornithine decarboxylase (ODC) in SENCAR mice; format: in vivo; conditions: CAPE 10 μmol, TPA 4 nmol
Procedure: as §1

[9] = test system: mouse skin; conditions: cited from earlier work
[10] = test system: bovine lens (opacity); conditions: 1 μM TPA; cited from earlier work

| SMILES | selective toxicity (in words) [1] | IC50 ([2]; 0.5 h, human PMNs 2.5×10^5/ml, TPA 25 pmol/ml, 37° C., 30 min, read-out: 50% inhibition of oxidative burst of PMNs (H2O2 production)) | inhibition of oxidative burst (in words) ([2]; CAPE 0.05-5.0 nmol/ml) | inhibition of TPA-induced ODC [3] | HIV integrase inhibition (in words) [4] | toxicity to normal tissue (in words) [5] | inhibition of adenovirus type 5 E1A-mediated transformation; cytotoxicity (in words) [6] | growth inhibition (in words) [7] | inhibition of TPA-induced ODC [8] | H2O2 production and oxidation of DNA bases in vivo (in words) [9] | lens opacity (in words) [10] |
| --- | --- | --- | --- | --- | --- | --- | --- | --- | --- | --- | --- |
| O=C(/C=C/c1ccc(O)c(O)c1)OCCc1ccccc1 [CAPE, Caffeic acid phenethyl ester] | selectively toxic to transformed cells but not to normal cells | 500 nM | inhibited the oxidative burst of PMNs (as measured by H2 O2 production) in a dose-dependent manner | 55% | inhibits HIV integrase | not toxic to normal tissue | inhibit the transformation mediated by adenovirus type 5 E1A; also recorded: more cytotoxic to transformed Fischer cloned rat embryo fibroblasts than to wild type cells | inhibited | 62% | – | – |
| CCCCCCCCCCCCCC(=O)O[C@@H]1[C@@H](C)[C@@]2(O)[C@@H](C=C(CO)C[C@]3(O)C(=O)C(C)=C[C@@H]23)[C@@H]2C(C)(C)[C@]12OC(C)=O [TPA, 12-O-tetradecanoylphorbol-13-acetate] | – | – | – | – | – | – | – | – | – | induce H2 O2 production in mouse skin as well as cause oxidation of DNA bases in vivo | even more pronounced; also recorded: causes its opacity |
